Assay results as given in patent publication US8232299B2, “Phthalimide derivatives that influence cellular vesicular systems, pharmaceutical compositions, and use thereof” (Avidin Kft., priority 2007, dated 2012).

What was measured:
[1] = system: RVH human melanoma cell line; experiment: cytotoxic effect on melanoma cell line, MTS assay, 48 hours; format: cell-based; settings: 48 hours treatment, FIG. 4; for effect on RVH melanoma cells: even at 100 μM concentration
Description: RVH human melanoma cell line was cultured in Minimum Essential Medium Eagle (Sigma, St. Louis, Mo., USA), Na-piruvate, Glutamine, Non-essential amino acids, penicillin (50 IU/ml)-streptomycin ([…]), 10% fetal bovine serum at 37° C., in 5% CO2. Cells were trypsinized with trypsin/EDTA (Sigma-Aldrich, St. Louis, Mo.) on every second day and were passed into 60 or 100 mm plates. When the culture reached the required cell number (approx. 10^6) for the planned experiment 50.00 cell/well was plated into 24 well plates (Costar® 24 Well TC-Treated Microplates) and left overnight to adhere to the bottom of the well. Addition of the substance was performed the following way: next day the culture media was drawn from the adhered cells and media comprising compounds of the present invention in appropriate concentration and well mixed therein was pipetted (2 ml/well) onto the cells. The substance to be examined was diluted in 100% DMSO, this way an amount of DMSO corresponding to the highest concentration of the substance in a given assay were measured in the media of the control wells. After 48 hours of treatment live cells were detected by CellTiter® 96 Aqueous Non-radioactive Cell Proliferation Assay (Promega, Madison, Wis., USA) to determine the number of live cells in the treated and in the control samples.
MTS is converted to formazane in the living cells, which product is dissolved in the media, and its quantity/absorbance can be measured at 490 nm. […] Then, for the determination of the ratio of live cells 20 μl MTS and 1 μl PMS are added to 100 μl media. The enzyme reaction occurs at incubation at 37° C., 5% CO2 for 1 to 4 hours. Formazane produced by the cells is read on ELISA plate reader, from which the number of living cells can be obtained indirectly. Since the inventors performed the experiments in 24 well plates with 50.000 cell/well, the protocol had to be modified. After treatment of the cells for an appropriate time (type of compound, different concentrations), the incubation media (2 ml) containing the examined substance was removed, then 400 μl media containing reagents in the same concentration as given above (333.3 μl media, 66.6 μl MTS, and 3.3 μl PMS per well) was pipetted to the cells. To be able to use ELISA plate reader (Multiskan R C, Thermo Labsystems, Franklin, Mass., USA) 400 μl sample from each single well of the 24 well plate was pipetted into four wells of a 96 well plate (Micromethod plates 96 wells flat form) in 100 μl aliquots. That also helped to eliminate possible errors due to inconsistent pipetting. On each 24 well plate 4 wells were control samples. From these 3 times 100 μl was pipetted onto the 96 well plates, so, altogether 12 controls were provided on each 96 well plate. The remaining 4 wells were for background measurements with 100 μl media containing MTS and PMS as described above.

[2] = system: HepG2 (human hepatocellular carcinoma); experiment: cytotoxic effect on hepatocellular carcinoma cell line, MTS test, 24 hours; format: cell-based; settings: 24 hours incubation
Description: (§1) In these experiments HepG2 (human hepatocellular carcinoma) and MCF7 (Human breast adenocarcinoma) cells were used. They were cultured in the following media: For HepG2 Dulbecco's Modified Eagle Medium (D-MEM) (high glucose) (Gibco BRL, Carlsbad, Calif., USA), penicillin (50 IU/ml)-streptomycin ([…]), 10% fetal bovine serum; for MCF7 (Human breast adenocarcinoma) 1:1 mixture of Dulbecco's Modified Eagle Medium (D-MEM) (high glucose) (Gibco BRL, Carlsbad, Calif., USA) and Nutrient Mixture F-12 Ham (Sigma, St. Louis, Mo., USA), penicillin (50 IU/ml)-streptomycin ([…]), 10% fetal bovine serum. Experiments were performed as described in Example 9. with the difference that the incubation time was 24 hours in this case. After the incubation period MTS test (3-(4,5-dimethylthiazol-2-yl)-5-(3-carboxymethoxyphenyl)-2-(4-sulfophenyl)-2H-tetrazolium) (Promega, Madison, Wis., USA) was performed as described above.

[3] = system: MCF7 (Human breast adenocarcinoma); experiment: cytotoxic effect on breast carcinoma cell line, MTS test, 24 hours; format: cell-based; settings: 24 hours incubation
Description: as §1

Rab GTPase proteins = experiment: affinity chromatography of MCF-7 protein fraction with LC-MS/MS; format: binding, human; settings: compound linked to Sepharose beads, 2 M NaCl eluate
Description: By using affinity chromatography we investigated which are the proteins that bind compound 5b of the invention. Compound 5b was linked to cyanobromide activated Sepharose (Amersham-Pharmacia, Sepharose 4B) beads in 6:4 DMF:water mixture for 16 hours at room temperature. 1 ml of the beads was washed with 50 ml 6:4 DMF:water mixture, and then with 50 ml 70% ethanol, then with PBS (0.01 M phosphate buffer, 0.0027 M KCl, 0.137 M NaCl, pH: 7.4). After washing the column 5 ml protein fraction of human MCF-7 breast carcinoma cells (10 million cells homogenized with Complete, Protease Inhibitor Cocktail Tablets, Roche Diagnostics GmbH) were applied onto the column. The column was washed with 20 ml 0.2 M NaCl—PBS solution, then with 15 ml 0.5 M NaCl—PBS solution and with 15 ml 0.8 M NaCl—PBS solution, then it was eluted by 2 ml 2 M NaCl—PBS. The eluate was analyzed by mass spectrometry (LC-MS/MS) to determine the proteins binding to compound 5b.
Mass spectrometry analysis was performed according to the protocol published at http://donatello.ucsf.edu/ingel.html at the time of drafting the patent application.
For the LC-MS/MS analysis 5 μl sample was injected. For the LC precolumn trap was applied: 5 min 20 μl 0.1% trifluoroacetic acid/water, then gradient elution for MS/MS analysis. Columns: Zorbax 300SB-C18, 5 μm, 5×0.3 mm; Zorbax 300SB-C18, 3.5 μm, 150×0.075 mm. […]

[4] = system: RAW.264.7 matured mice macrophages; experiment: MTS test of vitality / metabolic activity of the macrophages; format: cell-based
Description: In our experiments we investigated the early TNFα secretion of RAW.264.7 matured mice macrophages. This cell line stores large amount of preformed TNFα. […] Culture supernatant was collected and TNFα content was determined by R&D Duoset ELISA kit (detection limit<62.5 pg/ml). […] So the reduced TNFα level was due to inhibition of the release of preformed TNFα and not due to dying of the cells.
Effects of compound 3a and compound 3b on TNFα secretion and on NF-kappaB activation could have been based on cytotoxicity as well. To exclude that, we determined the metabolic activity of the cells, which is proportional to the cell number, by MTS test 8 hours after the treatment.

TNFα = experiment: late phase (transcriptionally induced) TNFα secretion of macrophages, ELISA; format: cell-based, mice; settings: preformed TNFα washed away after 4 hours, TNFα of next 4 hours; FIG. 3
Description: For the detection of late phase TNFα secretion the preformed TNFα, released after LPS induction of the macrophages, was washed away after 4 hours, and the amount of TNFα produced during the next 4 hours was determined by ELISA test. […] Results are depicted in FIG. 3.

Mycobacterium avis = experiment: inhibition of Mycobacterium avis in THP-1 macrophage culture; format: cell-based; settings: 36 mg/l, THP-1 human macrophage cells; FIG. 11
Description: In this experiment the effects of compound 3a were analyzed: the inhibition of Mycobacterium avis in macrophage culture was investigated. Human macrophage cells (THP-1) were infected by Mycobacterium avis under in vitro conditions, subsequently treated (compound 3a: 36 mg/l) and untreated cells were harvested after different periods of time and the number of the living Mycobacterium avis bacteria were determined.

[5] = system: human leukemia cells (K562); experiment: leukemia survival model, K562 cells i.v.; format: in vivo, CB17/scid mice; settings: 100 mg/kg p.o., once a day five days per week for 3 weeks from day 4; FIG. 10
Description: 2×10^6 human leukemia cells (K562) from in vitro cultures were injected intravenously (i.v.) into partially narcotized (diethylether narcosis) adult male CB17/scid mice, born with immunodeficiency. After tumor cell inoculation animals were randomly assigned into two groups and their ears were marked. From the 4th day after the tumor cell inoculation mice were treated once a day five days per week for 3 weeks with compound 9a (100 mg/kg), per os (p.o.) by gavage. Control animals were treated with appropriate dilution of the carrier (DMSO) similarly to the treated group with similar frequency. Body weight changes were monitored once a week for each animal according to the ear marks. Evaluation of the effect of the compound was based on the survival of the animals. Results are shown on FIG. 10.

[6] = in the concentration range tested
[7] = already at 20 and 50 μM concentrations

| Structure (SMILES) | inhibition of RVH melanoma cells (cytotoxic effect) [1] | effect on MCF7 cells [3, 7] | inhibition of HepG2 cells (cytotoxic effect) [2] | inhibition of MCF7 cells (cytotoxic effect) [3] | other results |
| --- | --- | --- | --- | --- | --- |
| CC(C)c1cccc(C(C)C)c1N1C(=O)c2c(F)c(F)c(F)c(NCCN)c2C1=O [Compound 5a, 2-(2,6-diisopropylphenyl)-4-(2-amino-ethylamino)-5,6,7-trifluoroisoindole-1,3-dione] | strongest inhibition | strong effect | – | – | effect on HepG2 cells [2, 6]: weak effect |
| CC(C)c1cccc(C(C)C)c1N1C(=O)c2c(F)c(F)c(NCCCN3CCOCC3)c(F)c2C1=O [Compound 7b, 2-(2,6-diisopropylphenyl)-5-(3-morpholino-4-yl-propylamino)-4,6,7-trifluoroisoindole-1,3-dione] | strongest inhibition | strong effect | strongest inhibition | – | effect on HepG2 cells [2, 7]: strong effect |
| CC(C)c1cccc(C(C)C)c1N1C(=O)c2c(F)c(F)c(F)c(NCc3cccnc3)c2C1=O [Compound 4a] | strongest inhibition | – | strongest inhibition | strongest inhibition | – |
| CC(C)c1cccc(C(C)C)c1N1C(=O)c2c(F)c(F)c(NCc3cccnc3)c(F)c2C1=O [Compound 4b] | strongest inhibition | strong effect | – | – | effect on HepG2 cells [2, 7]: strong effect |
| CC(C)c1cccc(C(C)C)c1N1C(=O)c2c(F)c(F)c(NCCN)c(F)c2C1=O [Compound 5b, 2-(2,6-diisopropylphenyl)-5-(2-amino-ethylamino)-4,6,7-trifluoroisoindole-1,3-dione] | – | – | – | – | proteins binding to the compound (Rab GTPase proteins): interactions with Rab GTPase proteins were identified; effect on RVH melanoma cells [1]: weak effect |
| CCNc1c(F)c(F)c(F)c2c1C(=O)N(c1c(C(C)C)cccc1C(C)C)C2=O [Compound 3a, 2-(2,6-diisopropylphenyl)-4-(ethylamino)-5,6,7-trifluoroisoindole-1,3-dione] | – | – | – | – | vitality of the cells (MTS test) ([4]; 3 hours after the stimulation with LPS): no cell death was detected; metabolic activity of the cells (MTS test) ([4]; 8 hours after the treatment): not found to be toxic; late TNFα secretion of macrophages (TNFα): inhibited late TNFα secretion of macrophages in a concentration dependent way; effect on RVH melanoma cells [1]: weak effect; effect on HepG2 cells [2, 6]: weak effect; effect on MCF7 cells [3, 6]: weak effect; number of divided (living) bacteria versus untreated group (Mycobacterium avis): significantly smaller |
| CC(C)c1cccc(C(C)C)c1N1C(=O)c2c(F)c(F)c(F)c(NC3CCCC3)c2C1=O [Compound 9a, 2-(2,6-diisopropylphenyl)-4-(cyclopentylamino)-5,6,7-trifluoroisoindoline-1,3-dione] | – | – | – | – | survival of the animals [5]: significant increase of the survival |
| CC(C)c1cccc(C(C)C)c1N1C(=O)c2c(F)c(F)c(F)c(NCC(F)(F)F)c2C1=O [Compound 6a, 2-(2,6-diisopropylphenyl)-4,5,6-trifluoro-7-(2,2,2-trifluoroethylamino)isoindole-1,3-dione] | strongest inhibition | – | strongest inhibition | strongest inhibition | – |
| CC(C)c1cccc(C(C)C)c1N1C(=O)c2c(F)c(F)c(F)c(NCCCN3CCOCC3)c2C1=O [Compound 7a, 2-(2,6-diisopropylphenyl)-4-(3-morpholino-4-yl-propylamino)-5,6,7-trifluoroisoindole-1,3-dione] | – | – | strongest inhibition | strongest inhibition | – |
